Patent US10258599B2, “Compounds for use in the prevention or treatment of cancer” (SEMMELWEIS UNIVERSITY, priority 2014, dated 2019)
“Also recorded” adds a separate entry of the source.

Experiments:
[1] = test system: isolated rat brain stem; details: optimal concentration for the specific enhancer effect, 3-min collection period; review Knoll, 2005; cited from earlier work
[2] = test system: male Wistar rats (Charles River); assay: Longevity study: survival of rats treated 3 times a week s.c.; format: in vivo, rat
Method: Experiments were carried out on male Wistar rats (Charles River) weighing 250-350 g received from the breeding colony of Semmelweis University. The animals were kept in a 12-hour light-dark cycle and under condition of controlled temperature (22±2° C.) and relative humidity (55±5%). Room temperature and relative humidity was checked daily. The rats were maintained on standard laboratory chow and tap water ad libitum. All procedures conformed to the European Convention for the protection of vertebrate animals used for experimental and other scientific purposes. The study was approved by the Animal Ethics Committee of Semmelweis University, Budapest (permission number: 1810/003/2004)
(§1) The longevity study was performed on 200 male rats received from the breeding colony of the Semmelweis University. The rats were born at the end of February of 2010. After 2-month acclimation period the rats were divided randomly into 5 even groups. The longevity study started at the beginning of May 2010. Animals were observed until their natural deaths. The data in this study represent the changes observed until Oct. 31, 2012, since in the saline-treated group the last animal died on Oct. 31, 2012. As will be shown later a few rats in the enhancer-treated groups were still alive on Nov. 1, 2012.
(§2) During the longevity study 5 rats were housed together in polycarbonate cages (height: 18 cm; wide: 42 cm; length: 44 cm) with a stainless steel on the top. Cage bedding was renewed 3 times a week (Monday, Wednesday and Friday). Bodyweight was measured once every month. The treatment started at the end of the second month of their age.
To avoid the mixing of the groups and individuals, saline-treated rats were signed blue from 1 to 40; D-treated rats were signed green from 1 to 80 (1-40: rats treated with 0.1 mg/kg and 41-80: rats treated with 0.001 mg/kg); B-treated rats were signed black from 1 to 80 (1-40: rats treated with 0.05 mg/kg and 41-80: rats treated with 0.0001 mg/kg).
(§3) Significance in the performance between the groups in the shuttle box was evaluated by multi-factor analysis of variance (ANOVA). Significance regarding the span of time from tumor manifestation until death in rats and regarding aging related changes in bodyweight treated chronically with the enhancer substances was analyzed by One-way ANOVA. Statistical analysis of survival rate and tumor manifestation was performed by the Kaplan-Meier method.

[3] = test system: mouse colon carcinoma cells (C38); assay: Mouse colon carcinoma (C38) spleen inoculation, liver metastasis; format: in vivo; details: 0.0001 mg/kg s.c. daily from one week before inoculation, day 23, p<0.05
Method: In this study 30.000 mouse colon carcinoma cells (C38) were inoculated into the spleen of C57BI/6 mice and macroscopic liver metastasis observed on day 23 after inoculation. In the experiment a group of mice pretreated daily subcutaneously for one week with 0.0001 mg/kg BPAP prior to the inoculation of 30.000 cells/animal and further treated until the end of the experiment (23rd day) whereas the control animals have not received BPAP.

[4] = target: T1, MAO-B (Rattus norvegicus, UniProt P19643); details: in vivo; cited from earlier work
T1 construct: from tissue; host or cells: brain, in vivo dosing
T1 sequence (P19643 1-520): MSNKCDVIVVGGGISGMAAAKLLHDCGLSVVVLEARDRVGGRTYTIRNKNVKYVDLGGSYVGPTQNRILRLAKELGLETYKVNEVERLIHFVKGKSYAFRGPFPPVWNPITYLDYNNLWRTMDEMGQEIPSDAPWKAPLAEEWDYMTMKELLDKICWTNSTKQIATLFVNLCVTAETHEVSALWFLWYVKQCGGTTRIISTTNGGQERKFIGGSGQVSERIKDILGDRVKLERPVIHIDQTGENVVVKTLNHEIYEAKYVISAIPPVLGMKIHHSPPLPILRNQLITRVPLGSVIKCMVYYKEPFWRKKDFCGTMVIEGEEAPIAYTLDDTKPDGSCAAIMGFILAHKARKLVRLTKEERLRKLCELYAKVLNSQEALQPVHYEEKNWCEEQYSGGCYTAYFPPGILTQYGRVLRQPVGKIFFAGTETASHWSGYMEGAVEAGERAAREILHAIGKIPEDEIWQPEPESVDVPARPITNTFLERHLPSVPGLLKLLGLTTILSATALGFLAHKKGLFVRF

[5] = test system: lung carcinoma; assay: Longevity study on FVB/N mice: spontaneous lung carcinoma at autopsy; format: in vivo, mouse; details: for Number of detected lung carcinoma: 18-month, 4 dissected mice
Method: Body weight is measured bimonthly.
For monitoring, we planned to sacrifice mice from each group at 6-month, 1-year, 1.5-year and 2-year time-points; the rest of the animals are kept until spontaneous death.
The results are shown in Table 4 and on FIGS. 19 and 20. Significance levels were calculated with two-sided Chi-square test.

[6] = test system: fibromyxosarcoma; assay: Longevity study: manifestation of subcutaneous fibromyxosarcoma (TMS effect); format: in vivo, rat; details: for tumor manifestation suppressing (TMS) effect versus saline: Kaplan-Meier, P<0.001
Method: as §1, §2
We carefully observed the appearance of the subcutaneous tumor and followed the development of the tumor until death. Histological analysis was performed post mortem on several rats taken from each group as examples.
The subcutaneous tumors developed in the rats were measured by the two largest diameters. After sacrificing the animals, the tumors were removed, photographs were taken. Tissues were fixed immediately after removal in 10% neutral formalin (in PBS, pH7.0) for 24 hours at room temperature, dehydrated and embedded in paraffin. 3-4 micrometer thick sections were cut and stained by hematoxylin and eosin (HE) as a routine.
as §3

[7] = 0.0001 mg/kg, N=40, listed as BPAP

For `CCCN[C@H](CCC)Cc1cc2ccccc2o1` [(−)-BPAP, (2R)-1-(1-benzofuran-2-yl)-N-propylpentane-2-amine], the “released amount of labeled transmitter ([3H]-norepinephrine, [3H]-dopamine or [3H]-serotonin)” value [1] is given as “significantly higher”, the “lifespan compared with saline-treated peers” value ([2]; 0.0001 mg/kg 3 times a week, P<0.05) is given as “lived significantly longer” and the “month of age in which the first animal died” value ([2]; 0.0001 mg/kg s.c. 3 times a week, N=40) is given as 16 month. For the same molecule, the “rats remained alive to the end of the 32nd month” value [2, 7] was “one and One”, the “month of age in which the first animal died” value ([2]; 0.05 mg/kg s.c. 3 times a week, N=40) was 14 month and the “lifespan compared with saline-treated peers” value ([2]; both doses of the longevity study (FIGS. 5-8)) was “significantly longer”. For the same molecule, the “number of macroscopic liver metastasis” value [3] was 2 tumors/liver, the MAO-B inhibitory potency [4] was “devoid of MAO-B inhibitory potency” and the “Number of detected lung carcinoma” value ([5]; 0.0001 mg/kg daily) was 0. For the same molecule, the “Number of detected lung carcinoma” value ([5]; 0.05 mg/kg daily) was 1, the “manifestation of lung carcinoma” value ([5]; extremely low dose (0.0001 mg/kg), 1.5-year (FIG. 20)) was “completely prevented the manifestation of lung carcinoma” and the “tumor manifestation suppressing (TMS) effect versus saline” value ([6]; 0.0001 mg/kg) was “significantly decreased; also recorded: more potent in suppressing tumor manifestation than 0.1 mg/kg (−)-deprenyl”. For the same molecule, the “tumor manifestation suppressing (TMS) effect versus saline” value ([6]; 0.0001 mg/kg, listed as BPAP) was “highly efficient; also recorded: suppressed the manifestation of the fibromyxosarcoma significantly”, the “month of age in which the first animal manifested the tumor” value ([6]; 0.0001 mg/kg, N=40) was 20 month and the “rats in the group manifested the tumor to the end of the 32nd month” value ([6]; 0.0001 mg/kg, N=40) was 8 rats. For the same molecule, the “rats manifested the fibromyxosarcoma when the group completed the 30th month of life” value ([6]; 0.0001 mg/kg, N=40) was 8 rats, the “month of age in which the first animal manifested the tumor” value [6, 7] was 25 month and the “tumor manifestation suppressing (TMS) effect versus saline” value ([6]; 0.05 mg/kg) was “significantly decreased”. The “tumor manifestation suppressing (TMS) effect versus saline” value ([6]; 0.05 mg/kg, listed as BPAP) was “suppressed the manifestation of the fibromyxosarcoma significantly”, the “month of age in which the first animal manifested the tumor” value ([6]; 0.05 mg/kg, N=40) was 13 month and the “rats in the group manifested the tumor to the end of the 32nd month” value ([6]; 0.05 mg/kg, N=40) was 7 rats. For the same molecule, the “rats manifested the tumor when the group completed the 30th month of life” value ([6]; 0.05 mg/kg, N=40) was 7 rats and the “span of time from tumor manifestation until death” value ([6]; chronic treatment, versus saline (FIG. 13), One-way ANOVA) was “no significant difference”.
